In paper PMC9446078 (Frontiers in Endocrinology, 2022):

Test: Toxicokinetics in miniature swine
Assay type: in vivo, Hanford miniature swine
Experimental: A total of 40 Hanford miniature swine (20 male and 20 female) divided into four treatment groups were used for this study. A 12-week topical application of Galnobax 20% was carried out in the miniature swine wound healing model with twice-daily dosing. Six wounds (10 cm^2 each) of partial thickness were created on the dorsal region of all animals. Four wounds of each animal received twice-daily topical doses of either the vehicle or Galnobax gel, and the remaining two sites served as untreated comparative control wounds. Each group has four male and female miniature swine for the assessments and one each for the recovery period as given in Table 1 . Safety parameters in terms of ECG, clinical pathology, wound site evaluation, and toxicokinetics were performed during the study.

[1] = Day 1, Group 2 swine, topical 400 mg Galnobax Gel, mean
[2] = Week 6, Group 2 swine, topical 400 mg Galnobax Gel BID, mean
[3] = Week 12, Group 2 swine, topical 400 mg Galnobax Gel BID, mean

## CC(C)NCC(O)COc1ccc(CCC(=O)O)cc1 (centres unmarked) [Esmolol Acid, Esmolol acid]
[1]
  AUClast: 3780 ng·h/mL
  Cmax: 683 ng/mL
  Tmax: 2.60 h
  t1/2: 4.18 h
Day 1, Group 2 swine, topical 400 mg Galnobax Gel, mean, listed as Esmolol acid
  t1/2: approximately 4 hr
[2]
  AUClast: 308 ng·h/mL
  Cmax: 52.5 ng/mL
  Tmax: 5.33 h
[3]
  AUC0-8: 269 ng·h/mL
  AUClast: 291 ng·h/mL
  Cmax: 59.7 ng/mL
  Tmax: 2.09 h
  t1/2: 15.90 h
Miniature swine, topical Galnobax
  accumulation after 12 weeks of twice-daily topical application: no apparent accumulation
